Reference: patent US9950071B2, “Hybrid anticancer prodrug simultaneously producing cinnamaldehyde and quinone methide and method for preparing same” (INDUSTRIAL COOPERATION FOUNDATION CHONBUK NATIONAL …, priority 2014, dated 2018)

Experiments:
[1] = system: xenograft mouse model of DU145 and SW620; assay: growth and size of tumor in xenograft model; format: in vivo; conditions: for growth inhibition effect of the tumor / size of the tumor: 2 mg/kg through tail vein every 3 days
Protocol: In order to verify in vivo anticancer activity of the QCA, a tumor in a xenograft model was observed. First, cancer cells were injected to a side hypodermic tissue of mouse by using a xenograft mouse model of DU145 and SW620 and when the tumor after cell transplantation started to be touched small, cinnamaldehyde, Q1, and cinnamaldehyde and Q1, or QCA was administrated by 2 mg/kg though tail vein every 3 days, and then the size of the tumor in the mouse was measured and the result thereof was illustrated in FIG. 17. Further, different amounts of QCA were administrated to the mouse having the tumor and in order to compare the effect thereof, 2 mg/kg of camptotethin (CPT) as an anticancer agent which was commercialized was administrated in other mouse, and then the size of the tumor of the mouse was measured and the result thereof was illustrated in FIG. 18.

DU145 cells = assay: flow cytometry with Annexin V-FITC and propidium iodide; format: cell-based; conditions: DU145, treated 24 hr, compared with cinnamaldehyde and Q1
Protocol: (§1) Further, in order to support the result of the DNA fragmentation assay, the DU145 and SW620 cells were cultured for 24 hr and treated with cinnamaldehyde, Q1 or QCA for 24 hr and then flow cytometry was performed by using Annexin V-FITC as a marker of apoptosis and propidium iodide (PI) as a marker for […], and the result was illustrated in FIGS. 15 and 16.

SW620 cells [2] = assay: as above; format: cell-based; conditions: SW620, treated 24 hr, compared with cinnamaldehyde and Q1
Protocol: as §1

SW620 cells [3] = assay: DNA fragmentation assay (electrophoresis); format: cell-based
Protocol: In order to verify an effect of the QCA on the DNA fragments, a DNA fragmentation assay of SW620 was performed. First, the DU145 and SW620 cells were cultured for 24 hr and then treated with 100 μm of cinnamaldehyde, 100 μm of Q1 (4-(1,3,2-dioxaborinan-2-yl)benzyl carbonate, and generating only quinone methide), and 25 μm, 50 μm, 100 μm of the QCA to isolate the DNA and the fragmentation of the nucleosomal DNA was observed by electrophoresis, and the result thereof was illustrated in FIG. 13.
Further, hereinabove, the DNA fragments of the SW620 treated with 100 μm of the QCA were analyzed over time and the result thereof was illustrated in FIG. 14.

[4] = system: procaspase-3 and PARP-1 in DU145 cells; assay: immunoblot analysis; format: cell-based; conditions: DU145, 8 hr, various concentrations
Protocol: (§2) The prostate cancer cell line DU145 and the colorectal cancer cell line SW620 (1×10^6/well) were treated with cinnamaldehyde or QCA for 8 hr at various concentrations and washed with new PBS twice. Proteins were extracted from the cells by using a lysis buffer solution. Electrophoresis was performed by using […] of a cell lysate in a […] and the proteins were transferred to a PVDF membrane (Millipore, Billerica, Mass.). A blot was cultured together with a PARP monoclonal antibody (Santa Cruz Biotechnology, Dallas, Tex.) or caspase-3 (Santa Cruz Biotechnology, Dallas, Tex.) and a HRP-coupled anti-goat antibody (Millipore, Billerica, Mass.) was used as a secondary antibody. An immunoblot signal was verified by using a chemiluminescent reagent (Pierce, Rockford, Ill.) of SuperSignal Ultra and the result thereof was illustrated in FIGS. 11 and 12.

[5] = system: procaspase-3 and PARP-1 in SW620 cells; assay: immunoblot analysis; format: cell-based; conditions: SW620, 8 hr, various concentrations
Protocol: as §2

liver and heart tissues = assay: organ damage, H&E and TUNEL staining of liver and heart tissues; format: in vivo, mouse; conditions: 21 days, once per three days
[6] = system: colorectal cancer cell line SW620; assay: cell GSH level (Ellman's reagent); format: cell-based
Protocol: (§3) A prostate cancer cell line DU145, a colorectal cancer cell line SW620, and a fibroblast cell NIH3T3 were inoculated in a 6-well plate (5×10^5/well) to reach 80% confluency. The cell lines were treated with various compounds for 1.5 hr at 37° C. and then, cells were obtained and washed with PBS. Thereafter, the cells were lysed in ice in 40 μL of a Triton X-100 lysis buffer solution. After 20 min, the lysate was centrifuged with 9,000 g and 10 μL of a supernatant was mixed with 50 μL of an Ellman's reagent (0.5 mM DTNB). The amount of GSH was quantified by measuring an absorbance at 405 nm using a microplate reader (Biotek Instruments, Winooski, Vt.). In the treated cells, a percentage of the GSH content was compared with the base GSH content measured in untreated cells, and the result was illustrated in FIG. 7.

fibroblast cell NIH3T3 = assay: cell GSH level (Ellman's reagent); format: cell-based; conditions: NIH3T3, 1.5 hr at 37° C., compared with untreated cells
Protocol: as §3

[7] = system: prostate cancer cell line DU145; assay: cell GSH level (Ellman's reagent); format: cell-based
Protocol: as §3

[8] = QCA structure after hydrolysis in tumor environment (1H NMR); format: physicochemical
Protocol: In a tumor environment, in order to verify a structure of the QCA triggered by double stimulus, the QCA was cultured for 24 hr at pH 5.5 and verified through ^1H NMR and the structure of the QCA was illustrated in FIG. 5.

[9] = system: DU145, SW620 and NIH3T3 cells; assay: cytotoxicity by MTT assay; format: cell-based; conditions: 24 hr treatment, various amounts
Protocol: The cytotoxities of the QCA prepared in Example 1 and the QBCA prepared in Example 2 were measured by an MTT assay. In detail, a prostate cancer cell line DU145, a colorectal cancer cell line SW620, and a fibroblast cell NIH3T3 were inoculated in a 24-well plate with the density of 1×10^5 cells/well, respectively, and cultured for 24 hr to reach up to 90% confluency. The cells were treated with various amounts of QCA, QBCA, Q1, or cinnamaldehyde and cultured for 24 hr. 100 μL of the MTT solution was put each well and the cells were cultured for 4 hr. The generated formazan crystals were dissolved in 200 μL of dimethylsulfoxide. After 10 min of the culture, an absorbance at 570 nm was measured by using a micro plate reader (Biotek Instruments, Winooski, Vt.). A cell survival rate was determined by comparing absorbances of cells in a control group and QCA or QBCA-treated cells, and the results were illustrated in FIGS. 9 and 10.

tumor lysate = tumor lysate analysis by LC-MS (generation of QM and cinnamaldehyde); format: in vivo, mouse
Protocol: In the tumor, in order to verify whether to generate the QM and the cinnamaldehyde in the tumor, a tumor lysate was analyzed by LC-MS after 22 days and the result thereof was illustrated in FIG. 19.

SW620 tumor mouse model = assay: histologic examination of tumor (H&E and TUNEL staining); format: in vivo; conditions: 21 days, once per three days
Protocol: In order to verify the apoptosis induced by the QCA, in a SW620 tumor mouse model, H&E staining of the tumor was performed after administrating cinnamaldehyde, Q1, the cinnamaldehyde and the Q1, or QCA for 21 days once per three days, and the result thereof was illustrated in FIG. 20. Further, terminal deoxynucleotidyl transferase dUTP nick end labeling (TUNEL) staining of the tumor was performed by the same method, and the result thereof was illustrated in FIG. 21.

[10] = toxicity of QCA: ALT evaluation and H&E staining of liver and heart; format: in vivo; conditions: 2 mg/kg, 10 days, once per 2 days
Protocol: In order to verify the stability of the QCA, after 2 mg/kg of the QCA was injected to the mouse for 10 days once per 2 days, alanine transaminase (ALT) evaluation and H&E staining of the liver and heart tissues were performed, and the result thereof was illustrated in FIGS. 24 and 25.

[11] = system: prostate cancer cell line DU145; assay: generation of reactive oxygen species by flow cytometry (DCFH-DA); format: cell-based; conditions: DU145, treated 12 hr, compared with cinnamaldehyde
Protocol: The prostate cancer cell line DU145 (4×10^5) was inoculated in a 24-well culture plate and cultured for 24 hr, and treated with cinnamaldehyde or QCA for 12 hr. Cells were washed with a new medium twice and resuspended in a 1× binding buffer at a concentration of 1×10^5 cells/mL. 100 μL of the cell suspension was transferred to 5 mL of a culture tube and added with 5 μM of 2′,7′-dichlorofluorescein diacetate (DCFH-DA) and softly mixed. The cells were dark-cultured for 15 min at room temperature and added with 400 μL of the 1× binding buffer. The stained cells were measured by using a flow cytometry (FACS Caliber, Becton Dickinson, San Jose, Calif.) and the result was illustrated in FIG. 8. A total of 1.5×10^4 cells per sample were analyzed.

[12] = in vivo; cited from earlier work

Question: For “4-(1,3,2-dioxaborinan-2-yl)benzyl carbonate [Example Q1, reference compound]”, which “growth inhibition effect of the tumor / size of the tumor” value [1] is on record?
Answer: slight

Question: What does the source list for `CC1(COC(=O)OCc2ccc(B3OCCCO3)cc2)COC(/C=C/c2ccccc2)OC1` (stereo not shown) [QCA, 4-(1,3,2-dioxaborinan-2-yl)benzyl ((5-methyl-2-styryl-1,3-dioxan-5-yl)methyl)carbonate]?
Answer: apoptosis (Annexin V / PI) (DU145 cells): faster apoptosis than the cinnamaldehyde and Q1-treated cells; apoptosis (Annexin V / PI) (SW620 cells [2]): faster apoptosis than the cinnamaldehyde and Q1-treated cells; amount of the DNA fragments over time (SW620 cells [3]; SW620, 100 μm QCA, over time): gradually increased in a concentration and time-dependent manner; DNA fragments (nucleosomal DNA ladder) (SW620 cells [3]; SW620, QCA 25, 50, 100 μm vs 100 μm cinnamaldehyde and 100 μm Q1): more DNA fragments than the cinnamaldehyde and the Q1; expression of PARP-1 [4]: concentration-dependently reduced; expression of procaspase-3 [4]: concentration-dependently reduced; expression of PARP-1 [5]: concentration-dependently reduced; expression of procaspase-3 [5]: concentration-dependently reduced; organ damage (liver and heart, H&E and TUNEL) (liver and heart tissues): did not induce a particular organ damage; GSH level at 50 μM ([6]; SW620, 50 μM): Most of GSH was depleted; further reduction of the GSH at 100 μM ([6]; SW620, 100 μM): not further observed; GSH level ([6]; SW620, 1.5 hr at 37° C., compared with untreated cells): significantly reduced in a dose-dependent manner; GSH level (fibroblast cell NIH3T3): no effect; GSH level at 50 μM ([7]; DU145, 50 μM): Most of GSH was depleted; further reduction of the GSH at 100 μM ([7]; DU145, 100 μM): not further observed; GSH level ([7]; DU145, 1.5 hr at 37° C., compared with untreated cells): significantly reduced in a dose-dependent manner; boronate oxidation and formation of hydroxybenzyl alcohol (1H NMR) ([8]; H2O2-mediated, peaks 6.9 and 6.4 ppm): formation of hydroxybenzyl alcohol and oxidation of H2O2-mediated boronate were verified; release of cinnamaldehyde by acetal bond cleavage (1H NMR) ([8]; cultured 24 hr at pH 5.5, aldehyde peak 9.4 ppm): cinnamaldehyde generated while an acetal bond was broken; growth inhibition effect of the tumor / size of the tumor [1]: significantly smaller size of the tumor; anticancer activity (size of the tumor) ([1]; QCA 1 mg/kg or less): a different anticancer activity was not shown; anticancer activity (size of the tumor) ([1]; QCA 2 mg/kg, compared with 2 mg/kg CPT): prominent anticancer activity; cytotoxicity (cell survival rate, MTT) [9]: increased according to a concentration; QM and cinnamaldehyde in the liver (tumor lysate; liver, after 22 days): not detected; GSH value in tumor lower than the tumor of the untreated mouse (tumor lysate; tumor lysate after 22 days): up to 38%; generation of cinnamaldehyde in the tumor (tumor lysate; tumor lysate after 22 days, new peak same as cinnamaldehyde treatment): cinnamaldehyde was generated; apoptosis in tumor tissue (H&E, TUNEL) (SW620 tumor mouse model): apoptosis of no-nuclear cells was widely shown; evidence of toxicity accumulated in the liver and the heart (H&E) [10]: not observed; serum ALT level compared with the untreated mouse [10]: a little difference; apoptosis / cell toxicity by ROS generation (FIG. 8) [11]: much higher cell toxicity than the cinnamaldehyde

Question: With `CC1(COC(=O)OCc2ccc(B3OCCCO3)cc2)COC(/C=C/c2ccccc2OC(=O)c2ccccc2)OC1` (stereo not shown) [QBCA, 4-(1,3,2-dioxaborinan-2-yl)benzyl ((5-methyl-2-(2-benzoyloxyphenyl)vinyl-1,3-dioxan-5-yl)methyl)carbonate] as the compound, how does the “cytotoxicity (cell survival rate, MTT)” value [9] read?
Answer: increased according to a concentration

Question: Which results are given for `O=CC=Cc1ccccc1` [cinnamaldehyde]?
Answer: change after culture at neutral pH without H2O2 ([8]; 72 hr, neutral pH, without H2O2): any change was not observed; half-life [12]: less than 1.5 hr; growth inhibition effect of the tumor / size of the tumor [1]: slight
